{"source": "paper PMC7232442", "about": "“Biofilm Eradication by Symmetrical Selenoesters for Food-Borne Pathogens” (Microorganisms, 2020)", "key": {"[1]": {"test_system": "S. Typhimurium SE02 ΔacrB", "test": "Real-time ethidium bromide accumulation assay", "format": "cell-based, Salmonella enterica serovar Typhimurium", "conditions": "S. Typhimurium SE02 ΔacrB; ½ MIC; minute 60", "protocol": "(§1) The impact of compounds on EB accumulation was determined by the automated EB method using a CLARIOstar Plus plate reader (BMG Labtech, UK). Firstly, the bacterial strain was incubated until it reached an optical density (OD) of 0.6 at 600 nm. The culture was washed with phosphate buffered saline (PBS; pH 7.4) and centrifuged at 13,000× g for 3 min, the cell pellet was re-suspended in PBS. The compounds were added at ½ MIC concentration to PBS containing a non-toxic concentration of EB (1 µg/mL). Then, 50 μL of the EB solution containing the compound were transferred into 96-well black microtiter plate (Greiner Bio-One Hungary Kft, Hungary), and 50 μL of bacterial suspension (OD600 0.6) were added to the each well. Then, the plates were placed into the CLARIOstar plate reader, and the fluorescence was monitored at excitation and emission wavelengths of 530 nm and 600 nm every minute for one hour on a real-time basis. From the real-time data, the activity of the compounds, namely the relative fluorescence index (RFI) of the last time point (minute 60) of the EB accumulation assay, was calculated according to the following formula:RFI = (RFtreated − RFuntreated)/RFuntreated(2) where RFtreated is the relative fluorescence (RF) at the last time point of EB retention curve in the presence of an inhibitor, and RFuntreated is the RF at the last time point of the EB retention curve of the untreated control having the solvent control (DMSO)."}, "[2]": {"test_system": "S. Typhimurium SE01 Wild-Type", "test": "Real-time ethidium bromide accumulation assay", "format": "cell-based, Salmonella enterica serovar Typhimurium", "conditions": "½ MIC, minute 60", "protocol": "as §1"}, "[3]": {"test_system": "S. aureus ATCC 25923", "test": "Real-time ethidium bromide accumulation assay", "format": "cell-based, Staphylococcus aureus", "parameters": "key to Relative Fluorescence Index (RFI): RFI = (RFtreated − RFuntreated)/RFuntreated at minute 60", "conditions": "S. aureus ATCC 25923; ½ MIC; minute 60", "protocol": "as §1"}, "[4]": {"test_system": "S. aureus MRSA", "test": "Biofilm formation using crystal violet", "format": "cell-based, Staphylococcus aureus", "protocol": "(§2) The anti-biofilm effect of the tested compounds against S. aureus strains and wild-type S. Typhimurium SE01 was measured using crystal violet (CV; 0.1% (v/v)). This dye is used to detect the total biofilm biomass formed. Overnight cultures were diluted to OD of 0.1 at 600 nm in TSB medium. Then, the bacterial cultures were added to 96-well microtiter plates and the compounds were added at ½ MIC concentration. The final volume was 200 μL in each well. The microtiter plates were incubated at 30 °C for 48 h with gentle agitation (100 rpm). After the incubation period, TSB medium was discarded, and the plates were washed with tap water to remove unattached cells. Then 200 μL crystal violet was added to the wells and incubated for 15 min at room temperature. Then, CV was removed from the wells and the plates were washed again with tap water, and 200 μL of 70% ethanol was added to the wells. Finally, the biofilm formation was determined by measuring the OD at 600 nm using Multiscan EX ELISA plate reader (Thermo Labsystems, Cheshire, WA, USA). The anti-biofilm effect of compounds was expressed in the percentage (%) of decrease in biofilm formation."}, "[5]": {"test_system": "reference S. aureus strain (ATCC 25923)", "test": "Biofilm formation using crystal violet", "format": "cell-based, Staphylococcus aureus", "conditions": "reference S. aureus; ½ MIC; 48 h", "protocol": "as §2"}, "[6]": {"test_system": "C. violaceum 026 sensor strain with AHL producer E. cloacae 31298 (violacein production)", "test": "Quorum sensing (QS) inhibition, parallel inoculation disk diffusion", "format": "cell-based, Chromobacterium violaceum", "conditions": "disc with 10 μL compound, starting concentration ½ MIC; 24–48 h", "protocol": "The QS inhibitory effect of selenocompounds was examined on the AHL producer E. cloacae strain and C. violaceum sensor bacterial strain. These strains were inoculated in parallel. The QS inhibition was monitored by agar diffusion method on LB* agar plate as described previously. Filter paper discs (7.0 mm in diameter) were placed between the parallel inoculated strains and impregnated with 10 μL compounds. Starting concentration of the compounds was ½ MIC. The agar plates were incubated at room temperature (20 °C) for 24–48 h and the inhibition of violacein production was measured."}, "[7]": {"test_system": "S. Typhimurium SE03 ΔacrA", "test": "Real-time ethidium bromide accumulation assay", "format": "cell-based, Salmonella enterica serovar Typhimurium", "conditions": "S. Typhimurium SE03 ΔacrA; ½ MIC; minute 60", "protocol": "as §1"}, "[8]": {"test_system": "S. Typhimurium SE39 ΔtolC", "test": "Real-time ethidium bromide accumulation assay", "format": "cell-based, Salmonella enterica serovar Typhimurium", "conditions": "S. Typhimurium SE39 ΔtolC; ½ MIC; minute 60", "protocol": "as §1"}, "[9]": {"test_system": "S. aureus MRSA 272123", "test": "Real-time ethidium bromide accumulation assay", "format": "cell-based, Staphylococcus aureus", "conditions": "S. aureus MRSA 272123; ½ MIC; minute 60", "protocol": "as §1"}, "[10]": {"test_system": "S. aureus MRSA 272123", "test": "MIC determination by microdilution method", "format": "cell-based", "conditions": "Staphylococcus aureus; S. aureus MRSA 272123; read-out: MIC", "protocol": "(§3) The minimum inhibitory concentrations (MICs) of compounds were determined according to the Clinical and Laboratory Standard Institute guidelines (CLSI). MIC values of the compounds were determined by visual inspection. The solvent was also assayed to ensure there was no antibacterial effect and the concentration (1 v/v%) applied in the assays had no antibacterial activity. DMSO was used at subinhibitory concentration (1 v/v%) in the assays."}, "[11]": {"test_system": "Staphylococcus aureus ATCC 25923", "test": "MIC determination by microdilution method", "format": "cell-based", "conditions": "S. aureus ATCC 25923", "protocol": "as §3"}, "[12]": {"test_system": "S. Typhimurium SE39 ΔtolC", "test": "MIC determination by microdilution method", "format": "cell-based, Salmonella enterica serovar Typhimurium", "conditions": "Salmonella enterica", "protocol": "as §3"}, "[13]": {"test_system": "S. Typhimurium SE01 Wild-Type", "test": "MIC determination by microdilution method", "format": "cell-based, Salmonella enterica serovar Typhimurium", "conditions": "Salmonella enterica; S. Typhimurium SE01 wild-type; read-out: MIC", "protocol": "as §3"}, "[14]": {"test_system": "MRC-5 human embryonal lung fibroblast cells", "test": "Cytotoxicity assay (MTT)", "format": "cell-based", "conditions": "Homo sapiens, MRC5, 24 h, MRC-5 cells", "protocol": "The adherent MRC-5 human embryonal lung fibroblast cells were cultured in 96-well flat-bottomed microtiter plates, using EMEM supplemented with 10% heat-inactivated fetal bovine serum. The density of the cells was adjusted to 1 × 10^4 cells in 100 μL per well, the cells were seeded overnight at 37 °C, 5% CO2, then the medium was removed from the plates containing the cells, and the dilutions of selenocompounds previously made in a separate plate were added to the cells in 200 μL.\nThe culture plates were incubated at 37 °C for 24 h; at the end of the incubation period, 20 μL of MTT (thiazolyl blue tetrazolium bromide, Sigma) solution (from a stock solution of 5 mg/mL) was added to each well. After incubation at 37 °C for 4 h, 100 μL of sodium dodecyl sulfate (SDS; Sigma) solution (10% in 0.01 M HCI) was added to each well and the plates were further incubated at 37 °C overnight. Cell growth was determined by measuring the optical density (OD) at 540/630 nm with Multiscan EX ELISA reader (Thermo Labsystems, Cheshire, WA, USA). Inhibition of the cell growth was determined according to the formula below:IC50 = 100 − [(ODsample − ODmedium control)/(ODcell control − ODmedium control)] × 100(1)\nResults are expressed in terms of IC50, defined as the inhibitory dose that reduces the growth of the cells exposed to the tested compounds by 50%."}}, "data": [{"smiles": "CC(=O)C[Se]C(=O)c1cccc(C(=O)[Se]CC(C)=O)c1", "note": "[Se-K2]", "values": [{"measurement": "Relative Fluorescence Index (RFI)", "setting": "[1]", "value": 0.13}, {"measurement": "Relative Fluorescence Index (RFI)", "setting": "[2]", "value": "−0.04"}, {"measurement": "Relative Fluorescence Index (RFI)", "setting": "[3]", "value": 0.11}, {"measurement": "Anti-biofilm effect (in words)", "setting": "[4]", "value": "promoted the biofilm formation"}, {"measurement": "Biofilm inhibition", "setting": "[5]", "value": 30.3, "unit": "%"}, {"measurement": "QS zone of inhibition", "setting": "[6]", "value": 40, "unit": "mm"}, {"measurement": "Relative Fluorescence Index (RFI)", "setting": "[7]", "value": 0.20}, {"measurement": "Relative Fluorescence Index (RFI)", "setting": "[8]", "value": 0.26}, {"measurement": "Relative Fluorescence Index (RFI)", "setting": "[9]", "value": "−0.07"}, {"measurement": "MIC", "setting": "[10]", "value": 1.56, "unit": "µM"}, {"measurement": "MIC", "setting": "[11]", "value": 0.39, "unit": "µM"}, {"measurement": "MIC", "setting": "[11]; Staphylococcus aureus, ATCC25923", "value": 0.39, "unit": "µM"}, {"measurement": "MIC", "setting": "[12]", "value": 100, "unit": "µM"}, {"measurement": "MIC", "setting": "[13]", "value": 50, "unit": "µM"}, {"measurement": "IC50", "setting": "[14]", "value": 1340, "unit": "nM"}]}]}
